# Columns and labels:
# [1] = HPLC analysis of encapsulated Olaparib (loading efficiency); assay type: physicochemical; settings: across the batches
# Protocol: HPLC analysis: The concentration of Olaparib encapsulated was determined using HPLC. The mobile phase was optimized to be methanol: water (64:36) run on a reverse phase C18 column (SUPELCO™), and the Olaparib was detected at 207 nm. All the doses used in the following studies were derived from the standard curve obtained using a working range of serially diluted Olaparib solutions in mobile phases as described above. The loading efficiency across the batches was around 80-90%.
# [2] = system: LNCaP cells; assay: Nuclear PARP cleavage assay by confocal microscopy; assay type: cell-based, human
# From the text: (§1) Irradiation for in vitro studies: Radiation was delivered using the Small Animal Radiation Research Platform (SARRP) at DFCI, a gantry mounted x-ray tube and flat panel imager capable of fixed field irradiation, rotation therapy and cone-beam CT (CBCT) imaging. […] Here the radiation doses were optimized to 2 Gy (5.6 Gy/min for 22 sec) and 4 Gy (5.5 Gy/min for 44 sec) to irradiate the cells, which were pretreated with Olaparib/NanoOlaparib for 24 hrs.
# (§2) Nuclear localization and early DNA damage determination: To assess the early DNA Damage and PARP inhibition pathway damage, including PARP, PARylation, PARP cleavage and yH2AX in the cell lines to various treatment conditions, the prostate cancer cell lines were seeded at 100,000 cells, exposed to 20 μM Olaparib/NanoOlaparib, with and without radiation for both immunoflorescence (confocal) and western blotting assays. PARP-1 is a 116 kDa nuclear protein which is strongly activated by DNA strand breaks. During apoptosis, proteins such as caspase-3 and -7, cleave the PARP to yield an 85 kDa and a 25 kDa fragment. The nuclear localization and extent of apoptosis was determined using nuclear PARP cleavage assay and western blotting was used to determine the relative cellular concentrations of PARP, PAR, and yH2AX for various treatments on all the cell lines. Briefly, 105 cells/well were seeded in a 6 well plate on sterile coverslips for 24 hours before adding the drugs. The cells were incubated with the drugs for either 4 hr s after which they were irradiated. The cells thus treated were incubated at 37° C. for 1 hour before fixing them for further analysis.
# (§3) Nuclear PARP Cleavage assay using confocal microscopy: The cells were fixed with 1% formalin and kept at 37° C. for 15 min. The coverslips were given three PBS washings (3 min each) until the cells were free of fixing agent. The cells were rehydrated using PBS with 0.5% tween 80 for 30 min, washed with buffer and incubated with Anti-PARP Cleavage Site (214/215) specific antibody, FITC Conjugate (Life technologies, NY, Cat #44-699) for 1 hour. This antibody specifically recognizes the 85 kDa fragment of cleaved PARP and can be used as a marker for detecting apoptotic cells. The coverslips were washed twice and were mounted onto the glass slide using and the edges were sealed using nail polish. The images were taken using an Olympus FV1000, multi-photon confocal microscope (Olympus America, Inc., Central Valley, Calif.). The excitation filters used for imaging cleaved PARP (FITC) and DAPI were Ex-488, 405 respectively. The emission filters were set at 530, 458 nm for FITC and DAPI respectively. All the images were captured with a 60× objective. […] Statistical significance was analyzed using two way ANOVA and Dunnet's multiple comparison tests in Graph Pad Prism.
# [3] = system: PC3 cells; assay: Nuclear PARP cleavage assay by confocal microscopy; assay type: cell-based, human; settings: PC3, DAPI
# From the text: as §1, §2, §3
# [4] = system: FKO1 cells; assay: Nuclear PARP cleavage assay by confocal microscopy; assay type: cell-based, mouse; settings: FKO1, DAPI
# From the text: as §1
# Nuclear localization and early DNA damage determination: To assess the early DNA Damage and PARP inhibition pathway damage, including PARP, PARylation, PARP cleavage and yH2AX in the cell lines to various treatment conditions, the prostate cancer cell lines were seeded at 100,000 cells, exposed to 20 μM Olaparib/NanoOlaparib, with and without radiation for both immunoflorescence (confocal) and western blotting assays. […] The nuclear localization and extent of apoptosis was determined using nuclear PARP cleavage assay and western blotting was used to determine the relative cellular concentrations of PARP, PAR, and yH2AX for various treatments on all the cell lines. […]
# Nuclear PARP Cleavage assay using confocal microscopy: The cells were fixed with 1% formalin and kept at 37° C. for 15 min. […] Statistical significance was analyzed using two way ANOVA and Dunnet's multiple comparison tests in Graph Pad Prism.
# [5] = system: PC3; assay: Delayed viability assay after radiosensitization (modified clonogenic assay); assay type: cell-based, human
# Protocol: In vitro characterization of NanoOlaparib: For in vitro studies we used PTEN deficient human prostate cancer cell lines PC3 (ATCC), LNCaP (ATCC) and mouse cell line FKO1. […] Briefly, a complete media was formulated by adding 10% Fetal Bovine Serum from HyClone (FBS) to F12-k (PC3), RPMI (LNCaP) and DMEM supplemented with growth factors such as Bovine Pituitary Extract, (Life Technologies cat #: 13028014), final conc. 25ug/ml, Insulin, (Sigma Aldrich Cat#:16634-50 mg), final conc. 5ug/ml, EGF (Life Technologies Cat#:PHG0311), final conc 6 ng/ml (FKO1). The FKO1 cells were grown on collagen-coated plates (VWR Cat#: 47743-656). CellTiter-Glo® luminescent cell viability reagent was ordered from Promega, CA Cat # G7570. […]
# (§4) Delayed viability assay after radiosensitization: Based on several studies, we modified the general clonogenic assay protocol to determine the long term effects of radio-sensitization with olaparib and NanoOlaparib (42, 43). The percent cell viability was determined using the modified clonogenic assay at 2 Gy and 4 Gy doses. […] The cell density was determined using automated cell counter and 10,000 and 20,000 cells from each treatment group was calculated and seeded in fresh 6 well plates. […] The stain was then dissolved in acetic acid to quantify the effect of Olaparib and NanoOlaparib treatments for all the cell lines.
# [6] = system: FKO1; assay: as above; assay type: cell-based, mouse
# Protocol: In vitro characterization of NanoOlaparib: For in vitro studies we used PTEN deficient human prostate cancer cell lines PC3 (ATCC), LNCaP (ATCC) and mouse cell line FKO1. […] Briefly, a complete media was formulated by adding 10% Fetal Bovine Serum from HyClone (FBS) to F12-k (PC3), RPMI (LNCaP) and DMEM supplemented with growth factors such as Bovine Pituitary Extract, (Life Technologies cat #: 13028014), final conc. 25ug/ml, Insulin, (Sigma Aldrich Cat#:16634-50 mg), final conc. 5ug/ml, EGF (Life Technologies Cat#:PHG0311), final conc 6 ng/ml (FKO1). The FKO1 cells were grown on collagen-coated plates (VWR Cat#: 47743-656). CellTiter-Glo® luminescent cell viability reagent was ordered from Promega, CA Cat # G7570. Clonogenic assay kit was bought from BioPioneer, CA, Cat # CODE: CA-001.
# as §1
# as §4, with “doses. Irradiation was carried out in prostate cancer cell lines, LNCaP PC3 and FKO1 as described above.” for “doses.”
# [7] = system: PC3; assay: Synergism with irradiation, combination index by CalcuSyn; assay type: cell-based, human; settings: PC3, 20 μM with irradiation
# Protocol: Determination of Synergism using CalcuSyn: The fraction of cells affected (Fa) in response to Olaparib and Nanoolaparib treatment was determined as discussed in above sections. The fraction of cells affected by irradiation alone and the combination therapy was determined by the delayed cell viability assay and these values were utilized to perform synergyism analysis. A non-constant ratio combination design as formulated by CalcuSyn (Biosoft) based on the Chou-Talalay isobologram equation was used to calculate the Combination index (44). All the cells were exposed to 20 μM Olaparib or NanoOlaparib with increasing doses of Irradiation. The CI values were generated from isobolograms. All assays were performed in duplicates. Bars represent the Combination index (CI) of Olaparib and Nanoolaparib on LNCaP, PC3 and FKO1 in combinations with irradiation. The CI values generated for all the treatment groups are reported in the bar graphs are derived from duplicate experiments. The extent of synergism is postulated as indicated by the Chou-Talalay method.
compound,measurement,setting,value
"O=C(c1cc(Cc2n[nH]c(=O)c3ccccc23)ccc1F)N1CCN(C(=O)C2CC2)CC1 [Olaparib, 4-(3-(1-(cyclopropanecarbonyl)piperazine-4-carbonyl)-4-fluorobenzyl)phthalazin-1(2H)-one]",loading efficiency,[1],80-90%
same,location of cleaved PARP,[2]; 1 hr post irradiation,predominantly found in the perinuclear region
same,increase in nuclear area,"[2]; DAPI, 20 μM",3 fold
same,increase in cleaved PARP upon monotherapy,"[2]; no irradiation, 20 μM",20 fold
same,change in nuclear size,[3],No significant change
same,change in nuclear size,[4],No significant change
same,cell death,"[5]; PC3, 20 uM with 2 Gy",80%
same,"cell death, monotherapy","[5]; PC3, 20 uM, no irradiation",78%
same,cell kill,"[6]; FKO1, 20 uM combined with 4 Gy radiation",82%
same,cell death,"[6]; FKO1, 20 uM with 2 Gy",68%
same,"cell death, monotherapy","[6]; FKO1, 20 uM, no irradiation",53%
same,combinatorial effect of drug and irradiation (CI),[7],additive effect

# Reference: patent US10111871B2, “Nanoparticle drug delivery system and method of treating cancer and neurotrauma” (Northeastern University, priority 2013, dated 2018)
